Reference: ChEMBL document CHEMBL1817560, “Selectivity of kinase inhibitor fragments” (J Med Chem, 2011)

Tests used:
[1] = target: T1, Inhibitor of nuclear factor kappa-B kinase subunit beta (Homo sapiens) (UniProt O14920); assay: Inhibition of IKK-beta expressed in Escherichia coli or baculovirus-infected insect cells at 667 uM by TR-FRET assay
T1 sequence (whole entry): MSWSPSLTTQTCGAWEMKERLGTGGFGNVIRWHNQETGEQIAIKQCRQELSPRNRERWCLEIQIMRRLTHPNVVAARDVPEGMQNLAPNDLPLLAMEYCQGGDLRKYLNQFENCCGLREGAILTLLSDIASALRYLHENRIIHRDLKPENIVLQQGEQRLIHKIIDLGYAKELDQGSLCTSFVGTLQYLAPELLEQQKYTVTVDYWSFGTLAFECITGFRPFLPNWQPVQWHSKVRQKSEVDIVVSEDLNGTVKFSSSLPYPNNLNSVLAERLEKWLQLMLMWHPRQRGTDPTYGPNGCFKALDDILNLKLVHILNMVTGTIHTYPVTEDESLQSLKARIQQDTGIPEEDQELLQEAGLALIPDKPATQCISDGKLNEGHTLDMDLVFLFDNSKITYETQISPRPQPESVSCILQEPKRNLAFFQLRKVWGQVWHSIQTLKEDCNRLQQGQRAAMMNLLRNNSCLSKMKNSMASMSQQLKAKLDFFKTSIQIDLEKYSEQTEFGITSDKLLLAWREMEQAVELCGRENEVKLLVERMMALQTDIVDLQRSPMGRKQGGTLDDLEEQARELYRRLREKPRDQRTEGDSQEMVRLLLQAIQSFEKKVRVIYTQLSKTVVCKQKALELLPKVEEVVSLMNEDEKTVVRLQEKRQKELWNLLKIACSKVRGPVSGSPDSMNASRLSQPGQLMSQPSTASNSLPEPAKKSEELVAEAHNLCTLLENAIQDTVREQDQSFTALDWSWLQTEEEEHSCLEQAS

[2] = target: Phosphatidylinositol 4,5-bisphosphate 3-kinase catalytic subunit gamma isoform (Homo sapiens) (UniProt P48736); assay: Inhibition of PI3Kgamma expressed in Escherichia coli or baculovirus-infected insect cells at 667 uM by fluorescence polarization assay
Sequence of Phosphatidylinositol 4,5-bisphosphate 3-kinase catalytic subunit gamma isoform (Homo sapiens) (P48736 whole entry, looked up, canonical isoform): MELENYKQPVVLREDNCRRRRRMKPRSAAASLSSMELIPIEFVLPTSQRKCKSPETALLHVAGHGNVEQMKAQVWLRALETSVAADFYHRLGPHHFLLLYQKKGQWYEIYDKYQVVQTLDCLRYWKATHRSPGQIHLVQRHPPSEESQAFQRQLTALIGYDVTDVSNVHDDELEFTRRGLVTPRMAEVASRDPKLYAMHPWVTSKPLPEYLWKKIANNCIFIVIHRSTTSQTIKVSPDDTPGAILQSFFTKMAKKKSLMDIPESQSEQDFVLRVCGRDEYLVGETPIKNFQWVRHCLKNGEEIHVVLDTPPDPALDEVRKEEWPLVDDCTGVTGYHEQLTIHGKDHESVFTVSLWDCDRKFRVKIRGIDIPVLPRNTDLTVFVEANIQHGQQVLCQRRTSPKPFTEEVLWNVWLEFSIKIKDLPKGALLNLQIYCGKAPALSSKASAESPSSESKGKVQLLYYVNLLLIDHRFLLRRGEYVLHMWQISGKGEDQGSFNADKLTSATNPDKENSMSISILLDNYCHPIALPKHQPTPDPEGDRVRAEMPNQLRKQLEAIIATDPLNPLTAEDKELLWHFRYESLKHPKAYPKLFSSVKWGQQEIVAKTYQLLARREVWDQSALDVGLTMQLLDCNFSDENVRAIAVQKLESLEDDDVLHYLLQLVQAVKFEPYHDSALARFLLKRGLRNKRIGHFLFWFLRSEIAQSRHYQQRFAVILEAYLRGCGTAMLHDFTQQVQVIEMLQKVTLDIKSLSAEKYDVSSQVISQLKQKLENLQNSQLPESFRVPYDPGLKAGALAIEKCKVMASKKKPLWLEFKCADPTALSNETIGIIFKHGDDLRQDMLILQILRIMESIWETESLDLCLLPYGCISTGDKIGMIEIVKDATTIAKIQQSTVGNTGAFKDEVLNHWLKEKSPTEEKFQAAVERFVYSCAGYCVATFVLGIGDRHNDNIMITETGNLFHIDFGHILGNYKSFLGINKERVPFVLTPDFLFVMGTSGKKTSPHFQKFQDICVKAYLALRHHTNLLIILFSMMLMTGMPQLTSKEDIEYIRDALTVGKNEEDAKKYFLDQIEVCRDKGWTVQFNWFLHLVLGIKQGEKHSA

[3] = target: Mitogen-activated protein kinase 8 (Homo sapiens, UniProt P45983); assay: Inhibition of JNK1 expressed in Escherichia coli or baculovirus-infected insect cells at 667 uM by TR-FRET assay
Sequence of Mitogen-activated protein kinase 8 (P45983 whole entry): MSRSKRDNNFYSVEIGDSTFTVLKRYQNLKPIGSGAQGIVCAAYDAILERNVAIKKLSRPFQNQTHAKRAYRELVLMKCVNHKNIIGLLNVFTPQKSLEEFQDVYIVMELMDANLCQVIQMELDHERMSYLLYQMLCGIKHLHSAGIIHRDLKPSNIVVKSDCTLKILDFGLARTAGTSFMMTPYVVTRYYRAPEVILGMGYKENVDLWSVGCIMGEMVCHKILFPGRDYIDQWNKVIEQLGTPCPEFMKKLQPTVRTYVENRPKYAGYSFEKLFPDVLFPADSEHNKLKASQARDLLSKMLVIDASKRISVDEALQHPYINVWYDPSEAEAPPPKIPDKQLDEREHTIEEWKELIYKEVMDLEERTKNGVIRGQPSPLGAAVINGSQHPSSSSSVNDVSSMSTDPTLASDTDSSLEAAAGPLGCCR

[4] = target: T2, Aurora kinase A (Homo sapiens) (UniProt O14965); assay: Inhibition of AurA expressed in Escherichia coli or baculovirus-infected insect cells at 400 uM by IMAP assay
T2 sequence (whole entry): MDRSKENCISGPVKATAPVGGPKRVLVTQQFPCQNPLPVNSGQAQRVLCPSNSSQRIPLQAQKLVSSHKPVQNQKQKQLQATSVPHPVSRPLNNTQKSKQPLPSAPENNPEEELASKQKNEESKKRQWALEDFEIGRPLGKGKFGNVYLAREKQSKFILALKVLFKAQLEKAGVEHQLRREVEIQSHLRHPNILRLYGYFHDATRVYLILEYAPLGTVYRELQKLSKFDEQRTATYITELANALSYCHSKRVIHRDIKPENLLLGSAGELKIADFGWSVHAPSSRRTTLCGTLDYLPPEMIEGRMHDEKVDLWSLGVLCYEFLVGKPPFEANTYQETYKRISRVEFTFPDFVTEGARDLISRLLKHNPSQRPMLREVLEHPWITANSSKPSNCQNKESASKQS

[5] = target: Tyrosine-protein kinase Fes/Fps (Homo sapiens) (UniProt P07332); assay: Inhibition of FES expressed in Escherichia coli or baculovirus-infected insect cells using ATP as substrate at 400 uM by fluorescence polarization assay
Sequence of Tyrosine-protein kinase Fes/Fps (Homo sapiens) (P07332 whole entry): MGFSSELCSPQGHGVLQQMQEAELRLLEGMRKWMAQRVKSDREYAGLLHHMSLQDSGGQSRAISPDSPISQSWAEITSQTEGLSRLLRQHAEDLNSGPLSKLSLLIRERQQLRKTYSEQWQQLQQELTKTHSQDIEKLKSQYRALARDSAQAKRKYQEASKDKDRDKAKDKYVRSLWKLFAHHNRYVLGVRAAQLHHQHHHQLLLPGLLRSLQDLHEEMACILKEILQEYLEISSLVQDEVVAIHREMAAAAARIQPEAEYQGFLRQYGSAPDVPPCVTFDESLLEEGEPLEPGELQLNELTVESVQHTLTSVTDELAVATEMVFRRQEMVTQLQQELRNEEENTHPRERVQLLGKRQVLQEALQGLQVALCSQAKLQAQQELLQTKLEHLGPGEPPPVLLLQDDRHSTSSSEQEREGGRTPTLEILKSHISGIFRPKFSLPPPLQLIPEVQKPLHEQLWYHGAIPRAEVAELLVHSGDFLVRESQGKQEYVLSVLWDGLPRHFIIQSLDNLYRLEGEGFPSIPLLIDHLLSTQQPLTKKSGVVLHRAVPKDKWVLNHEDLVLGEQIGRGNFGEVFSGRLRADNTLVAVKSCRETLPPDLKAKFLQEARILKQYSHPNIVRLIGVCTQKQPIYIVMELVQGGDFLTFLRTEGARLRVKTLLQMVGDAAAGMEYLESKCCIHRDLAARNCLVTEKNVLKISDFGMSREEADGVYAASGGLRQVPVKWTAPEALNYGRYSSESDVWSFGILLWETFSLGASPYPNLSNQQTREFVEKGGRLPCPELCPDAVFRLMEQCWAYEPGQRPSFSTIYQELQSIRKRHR

[6] = target: Receptor tyrosine-protein kinase erbB-2 (Homo sapiens) (UniProt P04626); assay: Inhibition of ErbB2 expressed in Escherichia coli or baculovirus-infected insect cells at 400 uM by TR-FRET assay
Sequence of Receptor tyrosine-protein kinase erbB-2 (Homo sapiens) (P04626 whole entry): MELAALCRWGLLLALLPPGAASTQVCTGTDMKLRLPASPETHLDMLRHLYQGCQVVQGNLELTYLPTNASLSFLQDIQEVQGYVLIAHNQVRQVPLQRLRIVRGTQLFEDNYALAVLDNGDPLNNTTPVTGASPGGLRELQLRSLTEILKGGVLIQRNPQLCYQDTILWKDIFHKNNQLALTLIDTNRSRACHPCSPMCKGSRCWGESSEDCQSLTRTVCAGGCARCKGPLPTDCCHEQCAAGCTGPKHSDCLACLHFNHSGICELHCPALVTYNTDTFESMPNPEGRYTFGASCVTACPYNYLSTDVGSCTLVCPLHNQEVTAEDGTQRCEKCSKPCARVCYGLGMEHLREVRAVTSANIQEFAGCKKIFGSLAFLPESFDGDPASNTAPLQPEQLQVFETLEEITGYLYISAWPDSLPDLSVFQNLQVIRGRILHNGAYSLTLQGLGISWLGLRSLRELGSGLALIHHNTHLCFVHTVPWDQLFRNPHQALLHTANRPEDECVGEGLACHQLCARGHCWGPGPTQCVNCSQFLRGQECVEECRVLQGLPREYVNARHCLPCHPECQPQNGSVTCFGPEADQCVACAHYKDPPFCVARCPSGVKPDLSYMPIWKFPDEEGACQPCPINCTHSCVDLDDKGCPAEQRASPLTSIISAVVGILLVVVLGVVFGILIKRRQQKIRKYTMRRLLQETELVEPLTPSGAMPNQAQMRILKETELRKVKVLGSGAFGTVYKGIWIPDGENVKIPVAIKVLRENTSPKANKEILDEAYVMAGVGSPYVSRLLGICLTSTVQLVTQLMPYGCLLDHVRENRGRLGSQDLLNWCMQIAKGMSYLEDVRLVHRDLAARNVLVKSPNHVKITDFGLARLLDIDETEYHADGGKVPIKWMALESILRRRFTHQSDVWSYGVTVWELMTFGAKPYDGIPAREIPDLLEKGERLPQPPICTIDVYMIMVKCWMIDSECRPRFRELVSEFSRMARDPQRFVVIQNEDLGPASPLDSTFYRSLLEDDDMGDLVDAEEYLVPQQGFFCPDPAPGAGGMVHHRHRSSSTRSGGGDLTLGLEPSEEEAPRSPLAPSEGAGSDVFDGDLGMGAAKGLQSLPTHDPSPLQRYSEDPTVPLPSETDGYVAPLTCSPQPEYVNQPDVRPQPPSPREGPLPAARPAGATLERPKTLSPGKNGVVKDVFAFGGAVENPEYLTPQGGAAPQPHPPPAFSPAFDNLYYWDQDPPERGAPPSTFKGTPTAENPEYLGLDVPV

[7] = target: Focal adhesion kinase 1 (Homo sapiens) (UniProt Q05397); assay: Inhibition of FAK expressed in Escherichia coli or baculovirus-infected insect cells at 400 uM by TR-FRET assay
[8] = target: Glycogen synthase kinase-3 beta (Homo sapiens) (UniProt P49841); assay: Inhibition of GSK3-beta expressed in Escherichia coli or baculovirus-infected insect cells using ATP as substrate at 667 uM by fluorescence polarization assay
[9] = target: Insulin-like growth factor 1 receptor (Homo sapiens) (UniProt P08069); assay: Inhibition of IGF1R expressed in Escherichia coli or baculovirus-infected insect cells at 400 uM by TR-FRET assay
Sequence of Insulin-like growth factor 1 receptor (Homo sapiens) (P08069 31-736 limits assumed): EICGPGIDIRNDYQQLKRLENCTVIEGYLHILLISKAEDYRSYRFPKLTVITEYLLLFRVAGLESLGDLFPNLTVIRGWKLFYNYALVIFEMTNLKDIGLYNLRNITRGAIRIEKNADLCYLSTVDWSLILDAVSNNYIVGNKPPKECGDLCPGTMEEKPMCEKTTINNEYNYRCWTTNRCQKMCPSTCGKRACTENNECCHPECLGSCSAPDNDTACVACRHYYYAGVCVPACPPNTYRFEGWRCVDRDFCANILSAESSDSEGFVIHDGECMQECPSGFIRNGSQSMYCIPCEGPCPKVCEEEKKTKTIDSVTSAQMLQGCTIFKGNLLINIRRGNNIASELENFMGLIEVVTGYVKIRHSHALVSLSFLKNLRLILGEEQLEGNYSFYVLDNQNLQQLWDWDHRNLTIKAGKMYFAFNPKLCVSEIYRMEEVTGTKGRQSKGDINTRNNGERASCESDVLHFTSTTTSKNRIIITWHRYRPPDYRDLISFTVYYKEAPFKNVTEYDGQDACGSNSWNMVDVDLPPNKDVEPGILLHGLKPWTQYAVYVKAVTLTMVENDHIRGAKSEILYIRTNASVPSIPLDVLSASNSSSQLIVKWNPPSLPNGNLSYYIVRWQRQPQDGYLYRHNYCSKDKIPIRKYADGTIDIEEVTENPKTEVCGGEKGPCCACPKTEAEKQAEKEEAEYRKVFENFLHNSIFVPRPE
Sequence of Insulin-like growth factor 1 receptor (Homo sapiens) (P08069 741-1367 limits assumed): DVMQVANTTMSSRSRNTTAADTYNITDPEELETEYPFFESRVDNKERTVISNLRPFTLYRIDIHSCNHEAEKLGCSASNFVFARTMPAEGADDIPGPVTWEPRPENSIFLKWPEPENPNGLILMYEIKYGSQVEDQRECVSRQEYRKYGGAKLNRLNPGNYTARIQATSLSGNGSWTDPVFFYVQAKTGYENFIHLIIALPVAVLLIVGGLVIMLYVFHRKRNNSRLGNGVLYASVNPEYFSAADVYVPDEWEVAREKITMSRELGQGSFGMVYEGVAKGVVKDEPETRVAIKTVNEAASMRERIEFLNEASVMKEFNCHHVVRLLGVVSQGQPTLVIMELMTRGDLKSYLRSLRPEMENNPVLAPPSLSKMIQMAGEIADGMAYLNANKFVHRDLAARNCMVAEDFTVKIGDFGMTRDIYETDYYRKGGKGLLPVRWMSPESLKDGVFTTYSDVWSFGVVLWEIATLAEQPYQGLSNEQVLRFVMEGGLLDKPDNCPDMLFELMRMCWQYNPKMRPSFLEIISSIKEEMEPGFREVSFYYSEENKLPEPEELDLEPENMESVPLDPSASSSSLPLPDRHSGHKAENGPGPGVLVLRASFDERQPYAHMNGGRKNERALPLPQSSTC

[10] = target: Rho-associated protein kinase 1 (Homo sapiens) (UniProt Q13464); assay: Inhibition of ROCK1 expressed in Escherichia coli or baculovirus-infected insect cells at 400 uM by IMAP assay
[11] = target: 3-phosphoinositide-dependent protein kinase 1 (Homo sapiens) (UniProt O15530); assay: Inhibition of PDK1 expressed in Escherichia coli or baculovirus-infected insect cells using gamma-[33P]ATP at 400 uM by scintillation proximity assay

| SMILES | inhibition [1] | inhibition [2] | inhibition [3] | inhibition [4] | inhibition [5] | inhibition [6] | inhibition [7] | inhibition [8] | inhibition [9] | inhibition [10] | inhibition [11] |
| --- | --- | --- | --- | --- | --- | --- | --- | --- | --- | --- | --- |
| Nc1ncccc1OCc1ccccc1 | 0% | 100% | 18% | 40% | 100% | 21% | 6% | 92% | 20% | 64% | 35% |
| CC(C)(C)c1cc(NC(=O)Nc2ccccc2)no1 | 2% | 9% | 4% | 27% | 3% | 0% | 3% | 19% | 0% | 9% | 25% |
| Nc1n[nH]c2ncccc12 | 65% | 20% | 20% | 92% | 12% | 9% | 7% | 59% | – | 46% | 40% |
| Cc1ccc(C(=O)NC2CC2)cc1F | 0% | 13% | 16% | 5% | 1% | 5% | 6% | 23% | – | 3% | 11% |
| c1ccc2[nH]ncc2c1 [INDAZOLE] | 15% | 0% | 13% | 37% | 1% | 0% | 3% | 35% | 24% | 80% | 25% |
| Cc1ccc(NC(=O)Nc2cccc(C(F)(F)F)c2)cc1 | 0% | 0% | 0% | 7% | 0% | 0% | 4% | 22% | 0% | 7% | 15% |
| Cc1ccc(NC(=O)Nc2cc(C(C)(C)C)nn2-c2ccccc2)cc1 | 3% | 2% | 2% | 7% | 3% | 2% | 6% | 34% | 5% | 6% | 15% |
| Nc1[nH]cnc2ncnc1-2 | 22% | 66% | 33% | 90% | 20% | 3% | 5% | 57% | 44% | 80% | 77% |
| c1cnc2[nH]ccc2c1 | 29% | 20% | 15% | 36% | 9% | 0% | 3% | 21% | 23% | 76% | 25% |
| c1ccc(-c2cnc3nccnn23)cc1 | 0% | 92% | 14% | 0% | 70% | 0% | 0% | 19% | 0% | 0% | 2% |
| c1n[nH]c2c1CCCC2 | 0% | 13% | 13% | 27% | 14% | 0% | 1% | 41% | 15% | 25% | – |
| O=C(Nc1ccccc1)Nc1ccccc1 | 0% | 9% | 0% | 0% | 13% | 2% | 30% | 11% | 6% | 5% | 20% |
| c1ccc(Nc2ccccc2)cc1 | 0% | 2% | 1% | 0% | 9% | 0% | 0% | 13% | 0% | 0% | 9% |
| c1ccc(Nc2ncccn2)cc1 | 8% | 16% | 74% | 89% | 35% | 4% | 10% | 55% | 18% | 10% | 27% |
| Nc1ccc2ncc(-c3ccccc3)n2n1 | 57% | 70% | 83% | 96% | 68% | 25% | 33% | 66% | 92% | 93% | 66% |
| Nc1[nH]nc2ccccc12 | 47% | 10% | 34% | 84% | 11% | 1% | 13% | 34% | 47% | 65% | 53% |
| O=C(Nc1ccccc1)Nc1cccc(C(F)(F)F)c1 | 0% | 7% | 0% | – | 6% | 0% | 6% | 19% | 1% | 8% | 8% |
